The experiment relates to U2OS_Bim cells. Nature of the experiment: Apoptosis inhibition assay (Bim-induced apoptosis, cell viability by ATP level). In kind it is cell-based. The note with it: U2OS_Bim cells, numbering of Tables 4a/4b, read-out: EC50. An outline of the steps: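 Apoptosis was triggered by doxycycline (0.1 μg/mL) induction of Bim, one hour after compound addition to U2OS_Bim cells. Survival was measured after 24 h from cellular ATP (CellTiter-Glo), relative to DMSO, with zVAD at 20 μM as rescue control. Data are duplicate means, some estimated from preliminary results.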

Setting [1] is: estimated based on preliminary results.

This is an account of results in US11725000B2, “Apoptosis inhibitors” (National Institute of Biological Sciences, Beijing, priority 2017, dated 2023).

The structures appear in SMILES notation. Like-named read-outs stand apart in the source and are kept apart here.

Consider `COc1ccc(Cn2cc(-c3cc(C(F)F)nc(S(=O)(=O)CCCNC(C)=O)n3)ccc2=O)cc1OC` [Compound 185, N-(3-((4-(difluoromethyl)-6-(1-(3,4-dimethoxybenzyl)-6-oxo-1,6-dihydropyridin-3-yl)pyrimidin-2-yl)sulfonyl)propyl)acetamide], for which the EC50 (means of duplicates) lay in the range of 1 to 10 µM. The same measure, in the same setting: under `COc1ccc(Cn2cc(-c3cc(C(F)F)nc(S(=O)(=O)CCCS(=O)(=O)c4nc(-c5ccc(=O)n(Cc6ccc(OC)c(OC)c6)c5)cc(C(F)F)n4)n3)ccc2=O)cc1OC` [Compound 186, 5,5′-(2,2′-(propane-1,3-diyldisulfonyl)bis(6-(difluoromethyl)pyrimidine-4,2-diyl))bis(1-(3,4-dimethoxybenzyl)pyridin-2 (1H)-one)] stands 0.001 to 1 µM. Turning to `COc1ccc(Cn2cc(-c3cc(C(F)(F)F)nc([S+]([O-])Cc4ccccn4)n3)ccc2=O)cc1OC` (centres unmarked) [Compound 187], the EC50 under setting [1] is under 10 µM. Consider `COc1ccc(Cn2cc(-c3cc(C(F)(F)F)nc(S(=O)(=O)Cc4cccnc4)n3)ccc2=O)cc1OC` [Compound 188], for which the 50% effective concentration (EC50) under setting [1] is under 10 µM. Same read-out and setting: under `COc1ccc(Cn2cc(-c3cc(C(F)(F)F)nc(S(=O)(=O)Cc4ccccn4)n3)ccc2=O)cc1OC` [Compound 189] stands under 10 µM; under `COc1ccc(Cn2cc(-c3cc(C(F)(F)F)nc(S(=O)(=O)Cc4ccncc4)n3)ccc2=O)cc1OC` [Compound 190], under 10 µM. Same read-out and setting: under `COc1ccc(Cn2cc(-c3cc(C(F)(F)F)nc([S+]([O-])Cc4ccncc4)n3)ccc2=O)cc1OC` (centres unmarked) [Compound 191] stands under 10 µM. Still for that read-out and setting: the same measure for `COc1ccc(Cn2cc(-c3cc(C(F)(F)F)nc([S+]([O-])Cc4cccnc4)n3)ccc2=O)cc1OC` (centres unmarked) [Compound 192]: under 10 µM. For the compound `COc1ccc(Cn2cc(-c3cc(C(F)(F)F)nc([S+]([O-])Cn4ncnn4)n3)ccc2=O)cc1OC` (centres unmarked) [Compound 193], the EC50 under setting [1] was under 10 µM.

In the case of `COc1ccc(Cn2cc(-c3cc(C(F)(F)F)nc(S(=O)(=O)CN4CCCC4)n3)ccc2=O)cc1OC` [Compound 194], the EC50 under setting [1] is under 10 µM. `COc1ccc(Cn2cc(-c3cc(C(F)(F)F)nc(S(=O)(=O)Cn4ncnn4)n3)ccc2=O)cc1OC` [Compound 195]: under setting [1], the concentration for a half-maximal effect (EC50) is under 10 µM. Still for that read-out and setting: the same measure for `COc1ccc(Cn2cc(-c3cc(C(F)(F)F)nc(S(=O)(=O)CN4CCCCC4)n3)ccc2=O)cc1OC` [Compound 196]: under 10 µM.

For `COc1ccc(Cn2cc(-c3cc(C(F)(F)F)nc([S+]([O-])CN4CCCCC4)n3)ccc2=O)cc1OC` (centres unmarked) [Compound 197], the concentration giving a half-maximal response (EC50) under setting [1] was under 10 µM. The same measure, in the same setting: under `COc1ccc(Cn2cc(-c3cc(C(F)(F)F)nc([S+]([O-])CN4CCCC4)n3)ccc2=O)cc1OC` (centres unmarked) [Compound 198] stands under 10 µM.

Take `COc1ccc(Cn2cc(-c3cc(C(F)(F)F)nc(S(=O)(=O)CN(C)C)n3)ccc2=O)cc1OC` [Compound 199]: the EC50 under setting [1] is under 10 µM. The same measure, in the same setting: under `COc1ccc(Cn2cc(-c3cc(C(F)(F)F)nc([S+]([O-])CN(C)C)n3)ccc2=O)cc1OC` (centres unmarked) [Compound 200] stands under 10 µM. Still for that read-out and setting: under `COc1ccc(Cn2cc(-c3cc(F)nc(S(C)(=O)=O)n3)ccc2=O)cc1OC` [Compound 201, 1-(3,4-dimethoxybenzyl)-5-(6-fluoro-2-(methylsulfonyl)pyrimidin-4-yl)pyridin-2 (1H)-one] stands under 10 µM; under `COc1ccc(Cn2cc(-c3cc(C(F)F)nc([S+](C)[O-])n3)ccc2=O)cc1OC` (centres unmarked) [Compound 202, 5-(6-(difluoromethyl)-2-(methylsulfinyl)pyrimidin-4-yl)-1-(3,4-dimethoxybenzyl)pyridin-2 (1H)-one], under 10 µM.

As for `COc1ccc(Cn2cc(-c3cc(CF)nc([S+](C)[O-])n3)ccc2=O)cc1OC` (centres unmarked) [Compound 203, 1-(3,4-dimethoxybenzyl)-5-(6-(fluoromethyl)-2-(methylsulfinyl)pyrimidin-4-yl)pyridin-2 (1H)-one], under setting [1], the 50% effective concentration (EC50) was under 10 µM.

With `COc1ccc(Cn2cc(-c3cc(-c4ccc[nH]4)nc(S(C)(=O)=O)n3)ccc2=O)cc1OC` [Compound 204], the half-maximal effective concentration (EC50) under setting [1] is under 10 µM.

Turning to `COc1ccc(Cn2cc(-c3cc(-c4ccc[nH]4)nc([S+](C)[O-])n3)ccc2=O)cc1OC` (centres unmarked) [Compound 205], under setting [1], the 50% effective concentration (EC50) is under 10 µM. Still for that read-out and setting: under `COc1ccc(Cn2cc(-c3cc(-c4ccco4)nc(S(C)(=O)=O)n3)ccc2=O)cc1OC` [Compound 206] stands under 10 µM; under `COc1ccc(Cn2cc(-c3cc(-c4ccco4)nc([S+](C)[O-])n3)ccc2=O)cc1OC` (centres unmarked) [Compound 207], under 10 µM.

For the compound `COc1ccc(Cn2cc(-c3cc(C4=CCC=C4)nc(S(C)(=O)=O)n3)ccc2=O)cc1OC` [Compound 208], the half-maximal effective concentration (EC50) under setting [1] was under 10 µM. On the same count and under the same terms, under `COc1ccc(Cn2cc(-c3cc(C4=CCC=C4)nc([S+](C)[O-])n3)ccc2=O)cc1OC` (centres unmarked) [Compound 209] stands under 10 µM; under `COc1ccc(Cn2cc(-c3cc(-c4ncco4)nc([S+](C)[O-])n3)ccc2=O)cc1OC` (centres unmarked) [Compound 210], under 10 µM.

For the compound `COc1ccc(Cn2cc(-c3cc(-c4ncco4)nc(S(C)(=O)=O)n3)ccc2=O)cc1OC` [Compound 211], the concentration for a half-maximal effect (EC50) under setting [1] was under 10 µM. As for `COc1ccc(Cn2cc(-c3cc(-c4cnco4)nc(S(C)(=O)=O)n3)ccc2=O)cc1OC` [Compound 212], under setting [1], the EC50 was under 10 µM.

With `COc1ccc(Cn2cc(-c3cc(-c4nccs4)nc([S+](C)[O-])n3)ccc2=O)cc1OC` (centres unmarked) [Compound 213], under setting [1], the EC50 is under 10 µM. As for `COc1ccc(Cn2cc(-c3cc(-c4cnco4)nc([S+](C)[O-])n3)ccc2=O)cc1OC` (centres unmarked) [Compound 214], the EC50 under setting [1] was under 10 µM. Same read-out and setting: the same measure for `COc1ccc(Cn2cc(-c3cc(-c4cncs4)nc(S(C)(=O)=O)n3)ccc2=O)cc1OC` [Compound 215]: under 10 µM. As for `COc1ccc(Cn2cc(-c3cc(-c4cncs4)nc([S+](C)[O-])n3)ccc2=O)cc1OC` (centres unmarked) [Compound 216], under setting [1], the concentration for a half-maximal effect (EC50) was under 10 µM. Still for that read-out and setting: under `COc1ccc(Cn2cc(-c3cc(-c4nccs4)nc(S(C)(=O)=O)n3)ccc2=O)cc1OC` [Compound 217] stands under 10 µM; under `COc1ccc(Cn2cc(-c3cc(-n4cccc4)nc([S+](C)[O-])n3)ccc2=O)cc1OC` (centres unmarked) [Compound 218], under 10 µM; under `COc1ccc(Cn2cc(-c3cc(-n4cccc4)nc(S(C)(=O)=O)n3)ccc2=O)cc1OC` [Compound 219], under 10 µM. Turning to `COc1ccc(Cn2cc(-c3cc(-n4cccn4)nc([S+](C)[O-])n3)ccc2=O)cc1OC` (centres unmarked) [Compound 220], the concentration for a half-maximal effect (EC50) under setting [1] is under 10 µM. On the same count and under the same terms, under `COc1ccc(Cn2cc(-c3cc(-n4ccnc4)nc([S+](C)[O-])n3)ccc2=O)cc1OC` (centres unmarked) [Compound 221] stands under 10 µM; under `COc1ccc(Cn2cc(-c3cc(-n4ccnc4)nc(S(C)(=O)=O)n3)ccc2=O)cc1OC` [Compound 222], under 10 µM; under `C[S+]([O-])c1nc(-c2ccc(=O)n(Cc3ccc4c(c3)OCO4)c2)cc(C(F)(F)F)n1` (centres unmarked) [Compound 223], under 10 µM. Consider `CS(=O)(=O)c1nc(-c2ccc(=O)n(Cc3ccc4ocnc4c3)c2)cc(C(F)(F)F)n1` [Compound 224], for which the concentration for a half-maximal effect (EC50) under setting [1] is under 10 µM. The same measure, in the same setting: under `C[S+]([O-])c1nc(-c2ccc(=O)n(Cc3ccc4ocnc4c3)c2)cc(C(F)(F)F)n1` (centres unmarked) [Compound 225] stands under 10 µM; under `CS(=O)(=O)c1nc(-c2ccc(=O)n(Cc3ccc4scnc4c3)c2)cc(C(F)(F)F)n1` [Compound 226], under 10 µM; under `C[S+]([O-])c1nc(-c2ccc(=O)n(Cc3ccc4ocnc4c3)c2)cc(C(F)(F)F)n1` (centres unmarked) [Compound 227], under 10 µM.

`CS(=O)(=O)c1nc(-c2ccc(=O)n(Cc3ccc4[nH]cnc4c3)c2)cc(C(F)(F)F)n1` [Compound 228]: the EC50 under setting [1] is under 10 µM. On the same count and under the same terms, under `C[S+]([O-])c1nc(-c2ccc(=O)n(Cc3ccc4[nH]cnc4c3)c2)cc(C(F)(F)F)n1` (centres unmarked) [Compound 229] stands under 10 µM; under `CS(=O)(=O)c1nc(-c2ccc(=O)n(Cc3ccc4c(c3)OCCO4)c2)cc(C(F)(F)F)n1` [Compound 230], under 10 µM; under `C[S+]([O-])c1nc(-c2ccc(=O)n(Cc3ccc4c(c3)OCCO4)c2)cc(C(F)(F)F)n1` (centres unmarked) [Compound 231], under 10 µM. The same measure, in the same setting: under `CNc1ccc(Cn2cc(-c3cc(C(F)(F)F)nc(S(C)(=O)=O)n3)ccc2=O)cc1NC` [Compound 232] stands under 10 µM; under `CNc1ccc(Cn2cc(-c3cc(C(F)(F)F)nc([S+](C)[O-])n3)ccc2=O)cc1NC` (centres unmarked) [Compound 233], under 10 µM; under `CS(=O)(=O)c1nc(-c2ccc(=O)n(Cc3ccc4c(c3)NCCN4)c2)cc(C(F)(F)F)n1` [Compound 234], under 10 µM. In the case of `C[S+]([O-])c1nc(-c2ccc(=O)n(Cc3ccc4c(c3)NCCN4)c2)cc(C(F)(F)F)n1` (centres unmarked) [Compound 235], under setting [1], the 50% effective concentration (EC50) was under 10 µM.

Regarding `CNc1ccc(Cn2cc(-c3cc(C(F)(F)F)nc(S(C)(=O)=O)n3)ccc2=O)cc1OC` [Compound 236], under setting [1], the concentration giving a half-maximal response (EC50) was under 10 µM. Same read-out and setting: the same measure for `CNc1ccc(Cn2cc(-c3cc(C(F)(F)F)nc([S+](C)[O-])n3)ccc2=O)cc1OC` (centres unmarked) [Compound 237]: under 10 µM; for `CNc1cc(Cn2cc(-c3cc(C(F)(F)F)nc(S(C)(=O)=O)n3)ccc2=O)ccc1OC` [Compound 238]: under 10 µM. For the compound `CNc1cc(Cn2cc(-c3cc(C(F)(F)F)nc([S+](C)[O-])n3)ccc2=O)ccc1OC` (centres unmarked) [Compound 239], under setting [1], the concentration for a half-maximal effect (EC50) is under 10 µM.

For `CS(=O)(=O)c1nc(-c2ccc(=O)n(Cc3ccc4c(c3)OCCN4)c2)cc(C(F)(F)F)n1` [Compound 240], the concentration giving a half-maximal response (EC50) under setting [1] is under 10 µM. Still for that read-out and setting: under `C[S+]([O-])c1nc(-c2ccc(=O)n(Cc3ccc4c(c3)OCCN4)c2)cc(C(F)(F)F)n1` (centres unmarked) [Compound 241] stands under 10 µM; under `CS(=O)(=O)c1nc(-c2ccc(=O)n(Cc3ccc4c(c3)NCCO4)c2)cc(C(F)(F)F)n1` [Compound 242], under 10 µM; under `C[S+]([O-])c1nc(-c2ccc(=O)n(Cc3ccc4c(c3)NCCO4)c2)cc(C(F)(F)F)n1` (centres unmarked) [Compound 243], under 10 µM.
